The source of these data is PubChem BioAssay (NCI).

SMILES strings stand for the structures. Values joined by “and” are separate entries in the source; they are usually repeats but may differ in a detail not shown here. Equal entries are not always repeated.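 Test compounds were applied to cells in 96-well plates for 48 hours at 5 doses. GI50 = concentration required for 50% inhibition of growth. TGI is the concentration that stops growth completely.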 Some results are limits rather than exact numbers.

Common to all, as to assay: NCI tumour cell line growth inhibition, 48 h
The subject of assay [1] is 786-0 renal.
The subject of assay [2] is A498 renal.
The test system of assay [3] is HCT-116 colon.
Assay [4] concerns HL-60(TB) leukemia.
In assay [5] the test system is LOX IMVI melanoma.
Assay [6] concerns MDA-MB-435.
Assay [7] has as its system OVCAR-5 ovarian.
Assay [8] deals with PC-3 prostate.
The subject of assay [9] is SW-620 colon.
Assay [10] deals with U251 CNS.

Regarding `O=C(CNc1ccccc1[N+](=O)[O-])Nn1c(-c2ccccc2)nc2ccccc2c1=O`, the TGI was 34.5 µM in assay [1]; 81.1 µM in assay [2]; 41.4 µM in assay [3]; > 100 µM in assay [4]; 24.7 µM in [5]; 60.1 µM in assay [6]. Further, the TGI in assay [7] worked out at 41.3 µM; in assay [8] it was 61.5 µM; in assay [9], 42.2 µM; in assay [10], 40.6 µM.

Take `O=[N+]([O-])c1cc2c(cc1/C=N/n1c(CO)nc3ccccc31)OCO2`: the TGI in [1], in [2], in assay [3], in [4], in assay [5] and in [6] was > 100 µM each time. Further, the TGI in assay [7], in assay [8], in assay [9] and in assay [10] was > 100 µM in each case.

Consider `NC1=CN2c3ccccc3N(CC(=O)O)C2C=C1` (configuration not stated), for which the TGI in assay [1], in assay [2], in assay [3], in assay [4], in assay [5] and in assay [6] was > 100 µM throughout. The TGI in assay [7], in assay [8], in assay [9] and in assay [10] was > 100 µM in each case.

On to `COc1ccc(OC)c(NS(=O)(=O)c2ccc3nc(C)n(NS(=O)(=O)c4cc(OC)ccc4OC)c(=O)c3c2)c1`, for which the TGI in [1], in [2], in [3], in assay [4], in assay [5] and in assay [6] was > 100 µM each time. In addition, the TGI in [7], in assay [8], in assay [9] and in assay [10] was > 100 µM in each case.

For `CCCCCCCCCCCCCCCCOC[C@@H](COC(c1ccccc1)(c1ccccc1)c1ccccc1)O[P+](=S)OC` (some centres not stated), the TGI in assay [1] stood at 19.1 µM; in [2], 26.1 µM; in [3], 14.1 µM; in assay [4], 36 µM; in [5], 11.3 µM; in assay [6], 5.5 µM. The TGI was 28.7 µM in assay [7], 18.9 µM in assay [8], 37 µM in [9] and 17.6 µM in assay [10].

On to `CCNC(=O)c1c(O)c2ccccc2[nH]c1=O`, for which the TGI in assay [1], in [2], in assay [3], in [4], in assay [5] and in assay [6] was > 100 µM in each case. Also, the TGI in assay [7], in [8], in [9] and in [10] was > 100 µM in each case.

As for `COc1cc2c(cc1OC)C1(COc3cc(O)c(O)c(O)c3C1=O)C2` (configuration not stated), the TGI in assay [1], in [2], in [3], in assay [4], in assay [5] and in [6] was > 50 µM in each case. Besides, the TGI in [7], in assay [8], in [9] and in assay [10] was > 50 µM throughout.

For the compound `COc1ccc2cc(CN3CCC(C4CCNCC4)CC3)ccc2c1`, the TGI is 3 µM in assay [1]; 14.7 µM in assay [2]; 3.73 µM in assay [3]; 3.38 µM in assay [4]; 2.94 µM in assay [5]; 3.58 µM in assay [6]. The TGI came out at 20.4 µM in assay [7], 28 µM in assay [8], 3.42 µM in assay [9] and 3.74 µM in [10].

As to `FC(F)(F)c1cccc(-c2nc3ccccc3c3c2[C@@]2(N4CCCC4)CCCC[C@@H]32)c1`, the TGI is > 100 µM in assay [1]; 95.6 µM in assay [2]; > 100 µM in assay [3]; 71.6 µM in [4]; 38.6 µM in assay [5]; 59.3 µM in assay [6]. Moreover, the TGI is > 100 µM in [7], > 100 µM in assay [8], > 100 µM in assay [9] and 71.4 µM in [10].

As for `CC(C)=CCC/C(C)=C/CC/C(C)=C/CC/C(=C/CC/C(C)=C\CC/C(C)=C/CC/C(C)=C/CC/C(C)=C/Cc1cc(O)ccc1O)CO`, the TGI is 9.66 µM in [1]; 18.2 µM in [2]; > 31.9 µM in assay [3]; 9.5 µM in [4]; > 23.4 µM in assay [5]; > 31.8 µM in [6]. Moreover, the TGI was > 91.5 µM in assay [7], 15.5 µM in assay [8], 42.5 µM in assay [9] and > 28.5 µM in [10].

Regarding `c1c[nH]c(C23C4C5C6C4C2C6C53)n1` (configuration not stated), the TGI in assay [1], in assay [2], in assay [3], in assay [4], in assay [5] and in assay [6] was > 100 µM throughout. The TGI in assay [7], in assay [8], in assay [9] and in assay [10] was > 100 µM in each case.

For `CCCCCCCCCCC1OC([C@@H](O)CC[C@H](O)C2CC[C@@H](CCCCCCCC(O)CC3=CC(C)OC3=O)O2)CCC1O` (some centres not stated), the TGI in assay [1] is > 25 µM; in assay [2], > 25 µM; in [3] it was > 25 µM; in assay [4], > 25 µM; in assay [5] it was > 12.5 µM; in assay [6] it was 5.58 µM and > 20.2 µM. For the same compound, the TGI in assay [7], in assay [8], in assay [9] and in assay [10] was > 25 µM each time. Further, the GI50 in assay [3] is 6 µM; in [4], 4.47 µM; in [5] it was 1.71 µM; in [6], 1.59 µM; in assay [8], 2.92 µM; in assay [9], 4.37 µM. For the same compound, the GI50 in [10] was 4 µM.

In the case of `S=C(c1c[nH]c2ccccc12)N1CCN(Cc2ccccc2)CC1`, the TGI in [1] is 29 µM; in assay [2] it was 37.3 µM; in [3], 29.1 µM; in assay [4], 44 µM; in assay [5] it was 29.2 µM; in assay [6] it was 28.8 µM. For the same compound, the TGI in assay [7] was 30.5 µM; in assay [8] it was 30.8 µM; in [9], 31.6 µM; in assay [10] it was 33.6 µM.

On to `CCCCCCCCCCCCOCCCOP(=O)([O-])OCC[N+](C)(C)C`, for which the TGI in [1] is 37.4 µM; in assay [2] it was 83.6 µM; in assay [3], > 86.8 µM; in assay [4], 55.5 µM; in assay [5] it was 59.8 µM; in assay [6], > 70 µM. Further, the TGI in assay [7] was > 100 µM; in [8] it was 9.73 µM; in [9], > 100 µM; in [10] it was 47.7 µM.

As to `CCCCCCCCCCCCCCCC(=O)N(CCCCCCCCCCC(=O)O)CC(O)C(O)C(OC1OC(CO)C(O)C(O)C1O)C(O)CO` (configuration not stated), the TGI was > 100 µM in assay [1]; > 100 µM in [2]; > 100 µM in [3]; 47.7 µM in assay [4]; 35.1 µM in assay [5]; > 100 µM in assay [6]. In addition, the TGI is > 100 µM in assay [7], > 100 µM in [8], 52.5 µM in assay [9] and 32.9 µM in [10].

Consider `CCN(CC)CCNC(=O)c1cn2c(ccc3sc4ccccc4c(=O)c32)n1`, for which the TGI was 19.5 µM in assay [1]; 33.4 µM in [2]; 20.7 µM in [3]; 25.4 µM in assay [4]; > 48.9 µM in [5]; 54 µM in assay [6]. Also, the TGI is 21.7 µM in assay [7], 23.4 µM in assay [8], 20.3 µM in [9] and > 51.6 µM in [10].

Take `O=C1CC(c2cccc(Br)c2)n2cccc21` (configuration not stated): the TGI in [1] is > 100 µM; in assay [2], > 100 µM; in [3] it was > 100 µM; in assay [4], 87.3 µM; in assay [5], > 100 µM; in [6] it was > 100 µM. Also, the TGI in [7], in [8], in assay [9] and in assay [10] was > 100 µM throughout.

Turning to `CC(=O)N=C1N(/C=C2\C(=O)Oc3ccccc3C2=O)C(=O)/C(=C/c2ccc(Cl)cc2Cl)N1C`, the TGI in assay [1], in assay [2], in [3], in assay [4], in assay [5] and in assay [6] was > 100 µM throughout. The TGI in [7], in assay [8], in assay [9] and in assay [10] was > 100 µM in each case.

Take `Cc1cn([C@@H]2O[C@H](CO[Si](C)(C)C(C)(C)C)[C@]3(O[C@H]3C(=O)NN)[C@H]2O[Si](C)(C)C(C)(C)C)c(=O)[nH]c1=O`: the TGI in assay [1] was 14.7 µM; in [2], 30.5 µM; in assay [3], 13.3 µM; in assay [4], 6.09 µM; in [5], 10.7 µM; in assay [6], 23.1 µM. The TGI in assay [7] is 21.3 µM; in [8], 11.4 µM; in [9] it was 20 µM; in [10], 14.5 µM.

Turning to `Cc1ccc2oc(=O)c(C(=O)Nc3nc(C45CC6CC(CC(C6)C4)C5)cs3)cc2c1`, the TGI in assay [1], in assay [2], in assay [3], in assay [4], in assay [5] and in assay [6] was > 100 µM throughout. The TGI in assay [7], in [8], in assay [9] and in assay [10] was > 100 µM each time.

Regarding `C[N+]1(CCCl)CC[N+](C)(CCCl)CC1` (configuration not stated), the TGI in assay [1], in assay [2], in [3], in assay [4], in assay [5] and in assay [6] was > 100 µM each time. Further, the TGI in [7], in assay [8], in assay [9] and in [10] was > 100 µM each time.

With `CC1=Nc2sc3c(c2C2=NCCN12)CCCC3`, the TGI turned out to be 46 µM in assay [1]; 90.6 µM in [2]; 44.7 µM in [3]; 61 µM in [4]; 36.8 µM in assay [5]; 91.6 µM in assay [6]. Also, the TGI in assay [7] was 92 µM; in assay [8], 65.9 µM; in assay [9] it was 52.9 µM; in [10], 70.7 µM.

As to `CC1=C(C(=O)c2ccccc2)C23C(=O)N(c4ccccc4)C(=O)C2=C(O)C=CC3(O)N1` (configuration not stated), the TGI in [1] was > 100 µM; in assay [2] it was > 100 µM; in assay [3], > 100 µM; in [4], 50.7 µM; in assay [5], 61.1 µM; in [6], > 100 µM. Besides, the TGI was > 100 µM in [7], > 100 µM in assay [8], 72.7 µM in assay [9] and 81.5 µM in [10].

As to `CCOC(=O)c1sc2[n+](c1C)C(=O)/C(=C/c1ccc([N+](=O)[O-])cc1)S2`, the TGI was 56.8 µM in assay [1]; > 100 µM in [2]; 54.7 µM in assay [3]; > 100 µM in assay [4]; 61.1 µM in [5]; 46.2 µM in assay [6]. Besides, the TGI in assay [7] was > 100 µM; in assay [8] it was 57.4 µM; in assay [9], 73.5 µM; in assay [10], 40.3 µM.

As for `O=C(O)/C(Cc1ccc([N+](=O)[O-])cc1)=N\O`, the TGI in assay [1], in assay [2], in [3], in assay [4], in [5] and in assay [6] was > 100 µM throughout. In addition, the TGI in assay [7], in [8], in assay [9] and in assay [10] was > 100 µM throughout.

Turning to `Nc1ccc(C(=O)c2cn(CCN3CCOCC3)c3ccccc23)c2ccccc12`, the TGI in assay [1] was > 100 µM; in assay [2], > 100 µM; in assay [3], > 100 µM; in assay [4] it was 44.8 µM; in assay [5] it was 73.1 µM; in [6] it was 83 µM. Further, the TGI in assay [7], in [8], in [9] and in assay [10] was > 100 µM throughout.
